Results taken from patent US20190358214A1, “Compositions and Methods for Treating HCV Infection” (AbbVie Inc., priority 2016, published 2019).

How the values were obtained:
[1] = 4-day repeat dose dog liver biopsy study; format: in vivo; conditions: Compound 1 dosed orally at 1 mg/kg
Description: (§1) This was believed to be attributed to the unique prodrug moiety in Compound 1, which is different from that in sofosbuvir. See paragraphs [0017]. [0018] and [0019] of U.S. patent application Ser. No. 15/254,342. In 4-day repeat dose dog liver biopsy study, Compound 1 dosed orally at 1 mg/kg delivered the similar liver triphosphate levels as sofosbuvir dosed orally at 5 mg/kg. Further modeling provided that 75 mg Compound 1 once daily dosing in human patients would match the liver triphosphate Cmax achieved by 400 mg sofosbuvir once daily dosing, that 80 mg Compound 1 once daily dosing in human patients would match the liver triphosphate AUC0-24 achieved by 400 mg sofosbuvir once daily dosing, and that 16 mg Compound 1 once daily dosing in human patients would maintain Cmin above GT1b polymerase EC50. The model that was used to translate dog study results to human liver pharmacokinetics was validated by sofosbuvir data.

[2] = modeling translating dog study results to human liver pharmacokinetics; conditions: modeled from dog study, once daily dosing
Description: as §1

[3] = as described in Example 41 of U.S. patent application Ser. No. 15/254,342; cited from earlier work

With `CCOC(=O)C(C)(C)N[P@](=O)(OC[C@H]1O[C@@H](n2ccc(=O)[nH]c2=O)[C@@](F)(Br)[C@@H]1O)Oc1ccccc1` [Compound 1] the “liver triphosphate levels compared with sofosbuvir dosed orally at 5 mg/kg” value [1] was “similar”, the “once daily dose in human patients that would maintain Cmin above GT1b polymerase EC50” value [2] was 16 mg and the “once daily dose in human patients that would match the liver triphosphate AUC0-24 achieved by 400 mg sofosbuvir once daily” value [2] was 80 mg. The “once daily dose in human patients that would match the liver triphosphate Cmax achieved by 400 mg sofosbuvir once daily” value [2] was 75 mg and the “active triphosphate profiles as compared to sofosbuvir” value [3] was “significantly improved”.
